Calls of active or inactive are those of the source. The calls are words filed in the database; no cut-off is given here.
Experiments:
Rattus norvegicus [1] = assay: Effect on piloerection after oral administration of 10 mg/kg in rat was determined; '+' weak effect; assay type: functional, organism-based; design: dose 10 mg/kg
Rattus norvegicus [2] = assay: Effect on diarrhea after oral administration of 20 mg/kg in rat was determined; '++' strong effect; assay type: functional, organism-based; design: dose 20 mg/kg
Rattus norvegicus [3] = assay: Effect on salivation after oral administration of 10 mg/kg in rat was determined; '-' No effect; assay type: functional, organism-based; design: dose 10 mg/kg
Mus musculus [4] = species on record: Mus musculus; assay: animal or person
Mus musculus [5] = species on record: Mus musculus; assay: animal or person; conditions: po
Rattus norvegicus [6] = assay: Effect on restlessness after oral administration of 10 mg/kg in rat was determined; '+' weak effect; assay type: functional, organism-based; design: dose 10 mg/kg
Rattus norvegicus [7] = assay: Effect on piloerection after oral administration of 20 mg/kg in rat was determined; '++' strong effect; assay type: functional, organism-based; design: dose 20 mg/kg
Rattus norvegicus [8] = assay: Effect on salivation after oral administration of 20 mg/kg in rat was determined; +' weak effect; assay type: functional, organism-based; design: dose 20 mg/kg
[9] = Ratio of ED50 (rotarod) to that of ED50 (fighting); assay type: functional
Rattus norvegicus [10] = assay: Effect on jumping after oral administration of 10 mg/kg in rat was determined; '-' No effect; assay type: functional, organism-based; design: dose 10 mg/kg
Rattus norvegicus [11] = assay: Effect on diarrhea after oral administration of 10 mg/kg in rat was determined; '+' weak effect; assay type: functional, organism-based; design: dose 10 mg/kg
Rattus norvegicus [12] = assay: Effect on tremor after oral administration of 10 mg/kg in rat was determined; '-' No effect; assay type: functional, organism-based; design: dose 10 mg/kg
[13] = Ratio of ED50 (hexobarbital) to that of ED50 (fighting); assay type: functional
Mus musculus [14] = species on record: Mus musculus; assay: animal or person; remark: listed apart in the source
Description: Ataxic activity in mice by rotarod test; Range (2.99-5.35)

[15] = Ratio of ED50 (ethanol) to that of ED50 (fighting); assay type: functional
Rattus norvegicus [16] = assay: Effect on tremor after oral administration of 20 mg/kg in rat was determined; +' weak effect; assay type: functional, organism-based; design: dose 20 mg/kg
Rattus norvegicus [17] = assay: Effect on restlessness after oral administration of 20 mg/kg in rat was determined; +' weak effect; assay type: functional, organism-based; design: dose 20 mg/kg
Mus musculus [18] = species on record: Mus musculus; assay: animal or person; remark: listed apart in the source
Description: Effect on alcohol induced sleep was determined in ethanol potentiation test; Range (0.41-1.79)

Rattus norvegicus [19] = assay: Effect on jumping after oral administration of 20 mg/kg in rat was determined; +' weak effect; assay type: functional, organism-based; design: dose 20 mg/kg
Monkey [20] = assay: Tested for ability to maintain self-administration after administration of 0.03 mg/kg in monkey 3038 Range (1-10); assay type: functional, Cercopithecidae
Monkey [21] = assay: Tested for ability to maintain self-administration after administration of 0.3 mg/kg in monkey 9079 (0-2); assay type: functional, Cercopithecidae
Monkey [22] = assay: Tested for ability to maintain self-administration after administration of 0.03 mg/kg in monkey 9079 Range (2-24); assay type: functional, Cercopithecidae
Monkey [23] = assay: Tested for ability to maintain self-administration after administration of 0.003 mg/kg in monkey 9079 Range (1-6); assay type: functional, Cercopithecidae
Monkey [24] = assay: Tested for ability to maintain self-administration after administration of 0.03 mg/kg in monkey 3017 Range (1-7); assay type: functional, Cercopithecidae
Monkey [25] = assay: Tested for ability to maintain self-administration after administration of 0.003 mg/kg in monkey 3017 Range (1-2); assay type: functional, Cercopithecidae
Monkey [26] = assay: Tested for ability to maintain self-administration after administration of 0.003 mg/kg in monkey 2036 Range (5-9); assay type: functional, Cercopithecidae
Monkey [27] = assay: Tested for ability to maintain self-administration after administration of 0.3 mg/kg in monkey 2036 (1-5); assay type: functional, Cercopithecidae
Monkey [28] = assay: Tested for ability to maintain self-administration after administration of 0.003 mg/kg in monkey 2037 Range (2-6); assay type: functional, Cercopithecidae
Monkey [29] = assay: Tested for ability to maintain self-administration after administration of 0.003 mg/kg in monkey 3038 Range (1-7); assay type: functional, Cercopithecidae
Monkey [30] = assay: Tested for ability to maintain self-administration after administration of 0.3 mg/kg in monkey 2037 (0-4); assay type: functional, Cercopithecidae
Monkey [31] = assay: Tested for ability to maintain self-administration after administration of 0.001 mg/kg in monkey 3038 Range (2-5); assay type: functional, Cercopithecidae
Monkey [32] = assay: Tested for ability to maintain self-administration after administration of 0.003 mg/kg in monkey 9083 Range (13-21); assay type: functional, Cercopithecidae
Monkey [33] = assay: Tested for ability to maintain self-administration after administration of 0.01 mg/kg in monkey 9079 Range (1-3); assay type: functional, Cercopithecidae
Monkey [34] = assay: Tested for ability to maintain self-administration after administration of 0.3 mg/kg in monkey 3017 (0-1); assay type: functional, Cercopithecidae
Monkey [35] = assay: Tested for ability to maintain self-administration after administration of 0.3 mg/kg in monkey 9083 (1-4); assay type: functional, Cercopithecidae
Monkey [36] = assay: Tested for ability to maintain self-administration after administration of 0.03 mg/kg in monkey 9083 Range (7-11); assay type: functional, Cercopithecidae
Monkey [37] = assay: Tested for ability to maintain self-administration after administration of 1 mg/kg in monkey 9079 (0-3); assay type: functional, Cercopithecidae
Monkey [38] = assay: Tested for ability to maintain self-administration after administration of 0.03 mg/kg in monkey 2036 Range (2-3); assay type: functional, Cercopithecidae
Monkey [39] = assay: Tested for ability to maintain self-administration after administration of 0.03 mg/kg in monkey 2037 Range (7-9); assay type: functional, Cercopithecidae
Monkey [40] = assay: Tested for ability to maintain self-administration after administration of 0.3 mg/kg in monkey 3038 (1-2); assay type: functional, Cercopithecidae
Monkey [41] = assay: Tested for ability to maintain self-administration after administration of 0.56 mg/kg in monkey 9079 Range (15-18); assay type: functional, Cercopithecidae
Monkey [42] = assay: Tested for ability to maintain self-administration after administration of 0.3 mg/kg in monkey 2036 Range (10-12); assay type: functional, Cercopithecidae
Monkey [43] = assay: Tested for ability to maintain self-administration after administration of 0.1 mg/kg in monkey 2036 Range (37-43); assay type: functional, Cercopithecidae
Monkey [44] = assay: Tested for ability to maintain self-administration after administration of 0.01 mg/kg in monkey 2036 Range (25-28); assay type: functional, Cercopithecidae
Monkey [45] = assay: Tested for ability to maintain self-administration after administration of 0.01 mg/kg in monkey 2037 Range (33-51); assay type: functional, Cercopithecidae
Monkey [46] = assay: Tested for ability to maintain self-administration after administration of 0.1 mg/kg in monkey 3017 Range ([…]); assay type: functional, Cercopithecidae
Monkey [47] = assay: Tested for ability to maintain self-administration after administration of 0.03 mg/kg in monkey 2037 Range (63-73); assay type: functional, Cercopithecidae
Monkey [48] = assay: Tested for ability to maintain self-administration after administration of 0.3 mg/kg in monkey 9079 Range (32-53); assay type: functional, Cercopithecidae
Monkey [49] = assay: Tested for ability to maintain self-administration after administration of 0.01 mg/kg in monkey 3017 Range (14-22); assay type: functional, Cercopithecidae
Monkey [50] = assay: Tested for ability to maintain self-administration after administration of 0.03 mg/kg in monkey 2036 Range (30-36); assay type: functional, Cercopithecidae
Monkey [51] = assay: Tested for ability to maintain self-administration after administration of 0.03 mg/kg in monkey 3017 Range (26-29); assay type: functional, Cercopithecidae
Monkey [52] = assay: Tested for ability to maintain self-administration after administration of 0.03 mg/kg in monkey 9083 Range (19-47); assay type: functional, Cercopithecidae
Monkey [53] = assay: Tested for ability to maintain self-administration after administration of 0.3 mg/kg in monkey 3017 Range (28-50); assay type: functional, Cercopithecidae
Monkey [54] = assay: Tested for ability to maintain self-administration after administration of 0.03 mg/kg in monkey 3038 Range (0-14); assay type: functional, Cercopithecidae
Monkey [55] = assay: Tested for ability to maintain self-administration after administration of 0.1 mg/kg in monkey 9083 Range (20-32); assay type: functional, Cercopithecidae
Monkey [56] = assay: Tested for ability to maintain self-administration after administration of 0.1 mg/kg in monkey 3038 Range (42-58); assay type: functional, Cercopithecidae
Monkey [57] = assay: Tested for ability to maintain self-administration after administration of 0.1 mg/kg in monkey 2037; assay type: functional, Cercopithecidae
Monkey [58] = assay: Tested for ability to maintain self-administration after administration of 0.3 mg/kg in monkey 3038 Range (12-32); assay type: functional, Cercopithecidae
Monkey [59] = assay: Tested for ability to maintain self-administration after administration of 0.1 mg/kg in monkey 9079 Range (5-20); assay type: functional, Cercopithecidae
Monkey [60] = assay: Tested for ability to maintain self-administration after administration of 0.3 mg/kg in monkey 9083 Range (14-23); assay type: functional, Cercopithecidae

For `CN1C(=O)CN=C(c2ccccc2)c2cc(Cl)ccc21` [DIAZEPAM], the Effect (Rattus norvegicus [1]) was “Partially active”, the Effect (Rattus norvegicus [2]) was “Active” and the Effect (Rattus norvegicus [3]) was “inactive”. For the same compound, the ED50 (Mus musculus [4]) was 3 mg/kg, the ED50 (Mus musculus [5]) was 1.4 mg/kg and the Effect (Rattus norvegicus [6]) was “Partially active”. The Effect (Rattus norvegicus [7]) was “Active”, the Effect (Rattus norvegicus [8]) was “Partially active” and the Therapeutic index [9] was 2.9. For the same compound, the Effect (Rattus norvegicus [10]) was “inactive”, the Effect (Rattus norvegicus [11]) was “Partially active” and the Effect (Rattus norvegicus [12]) was “inactive”. It also gave a Therapeutic index [13] of 2.1, an ED50 (Mus musculus [14]) of 4 mg/kg and a Therapeutic index [15] of 0.6. For the same compound, the Effect (Rattus norvegicus [16]) was “Partially active”, the Effect (Rattus norvegicus [17]) was “Partially active” and the ED50 (Mus musculus [18]) was 0.85 mg/kg. The Effect (Rattus norvegicus [19]) was “Partially active”.

`COc1ccccc1N1CCN(CC(O)COc2cc(OC)c(OC)c(OC)c2)CC1` (stereo not given) [ENCIPRAZINE] gave an Effect (Monkey [20]) of 4.3, an Effect (Monkey [21]) of 1 and an Effect (Monkey [22]) of 13.7. The Effect (Monkey [23]) was 3, the Effect (Monkey [24]) was 4.3 and the Effect (Monkey [25]) was 1.7. For the same compound, the Effect (Monkey [26]) was 7, the Effect (Monkey [27]) was 3 and the Effect (Monkey [28]) was 4.3. For the same compound, the Effect (Monkey [29]) was 4, the Effect (Monkey [30]) was 2 and the Effect (Monkey [31]) was 3.5. The Effect (Monkey [32]) was 17.7, the Effect (Monkey [33]) was 2 and the Effect (Monkey [34]) was 0.3. The Effect (Monkey [35]) was 2.7, the Effect (Monkey [36]) was 9 and the Effect (Monkey [37]) was 1.3. For the same compound, the Effect (Monkey [38]) was 2.3, the Effect (Monkey [39]) was 7.7 and the Effect (Monkey [40]) was 1.3.

In the case of `CCN(CC)CCN1C(=O)CN=C(c2ccccc2F)c2cc(Cl)ccc21` [FLURAZEPAM], the Effect (Monkey [41]) is reported as 16.7, the Effect (Monkey [42]) is reported as 11 and the Effect (Monkey [43]) is reported as 40. For the same compound, the Effect (Monkey [44]) was 26, the Effect (Monkey [45]) was 40.7 and the Effect (Monkey [46]) was 54.7. The Effect (Monkey [47]) was 68, the Effect (Monkey [48]) was 44.7 and the Effect (Monkey [49]) was 17.7. The Effect (Monkey [50]) was 33, the Effect (Monkey [51]) was 27.5 and the Effect (Monkey [52]) was 29. The Effect (Monkey [53]) was 40.3, the Effect (Monkey [54]) was 8 and the Effect (Monkey [55]) was 26.3. The Effect (Monkey [56]) was 50, the Effect (Monkey [57]) was 33 and the Effect (Monkey [58]) was 22. For the same compound, the Effect (Monkey [59]) was 12.5 and the Effect (Monkey [60]) was 18.3.
